Our source for the Ki and Km values is publication PMC2453323 (PLoS Pathogens, 2008).

Assay [1] addresses neuraminidase of A(H1N1) clinical isolate 0650/04 (Influenza A virus (H1N1), UniProt B4YYP0). In words: biochemical.
Assay [2] addresses neuraminidase of A/New Caledonia/20/99(H1N1) (NC99) (Influenza A virus, UniProt Q7TG96). Description: biochemical. Format: biochemical.
Assay [3] has as its target neuraminidase of A(H1N1) clinical isolate 0611/07 (Influenza A virus (H1N1), UniProt D5F1R0). Format: biochemical.
For assay [4], the target named is neuraminidase of A(H1N1) clinical isolate 0497/07 (Influenza A virus (H1N1), UniProt D5F1R0). Format: biochemical.
Assay [5] concerns the target neuraminidase of A(H1N1) clinical isolate 1149/08 (Influenza A virus, UniProt G3LYQ1). Format: biochemical.
The target in assay [6] is neuraminidase of A(H1N1) clinical isolate 0286/07 (Influenza A virus (H1N1), UniProt D5F1R0). Format: biochemical.
For assay [7], the target named is neuraminidase of A(H1N1) clinical isolate 0814/07 (Influenza A virus, UniProt D5F1R0). Format: biochemical.
Assay [8] addresses neuraminidase of A/Solomon Islands/3/2006(H1N1) (SI06) (Influenza A virus, UniProt B4URD9). Format: biochemical.
For assay [9], the target named is neuraminidase of A(H1N1) clinical isolate 0974/08 (Influenza A virus, UniProt G3LYQ1). Format: biochemical.
The target in assay [10] is neuraminidase of A(H1N1) clinical isolate 1951/06 (Influenza A virus, UniProt B4URD9). Format: biochemical.
Assay [11] has as its target neuraminidase of A(H1N1) clinical isolate 0692/07 (Influenza A virus (H1N1), UniProt A8C8J7). Format: biochemical.
For assay [12], the target named is neuraminidase of the 5 pre-2007–2008 H1N1 viruses (Influenza A virus, UniProt B4URD9). Format: biochemical. The settings on record: read-out: Mean Km, group Mean.
The target in assay [13] is neuraminidase of the 6 sensitive H1N1 viruses from the 2007–2008 season (Influenza A virus, UniProt D5F1R0). Format: biochemical. The following applies: read-out: Mean Km, group Mean.

As usually defined, the Ki is the equilibrium dissociation constant of an inhibitor or competing ligand from its target. Higher therefore signals weaker binding. By Km is commonly meant the concentration of substrate that gives half-maximal velocity.

For the compound `CCOC(=O)C1=C[C@@H](OC(CC)CC)[C@H](NC(C)=O)[C@@H](N)C1` [OC, oseltamivir], the Ki in [1] is 0.2 nM; in assay [2] it was 0.19 nM.
As for `CC(=O)N[C@H]1[C@H]([C@H](O)[C@H](O)CO)OC(C(=O)O)=C[C@@H]1N=C(N)N` [Zana, zanamivir], the affinity in [1], expressed as Ki, was 0.2 nM.
As for `CC(=O)N[C@@H]1[C@@H](O)C[C@](Oc2ccc3c(C)cc(=O)oc3c2)(C(=O)O)O[C@H]1C(O)[C@H](O)CO` (stereo partly shown) [MUNANA], the Km in [3] was 8 µM; in assay [4], 7.5 µM; in [5] it was 10.4 µM; in assay [6], 8.5 µM; in assay [1], 25.6 µM; in assay [7], 9 µM. Also, the Km in [8] is 25.1 µM; in assay [9] it was 10.4 µM; in assay [10] it was 29.5 µM; in assay [2], 27.4 µM; in [11] it was 31.5 µM; in assay [12], 28 µM. In addition, in [13], the Km was determined as 9 ± 1.2 µM.
